Laboratory results published in patent publication US12377065B2, “Compositions for treatment of substance use disorder” (UNIVERSITY OF NORTH TEXAS HEALTH SCIENCE CENTER, priority 2019, dated 2025).

Tests used:
Swiss-Webster mice [1] = assay: Acute cocaine-induced hyperlocomotion (Example 2); settings: cocaine 40 mg/kg; for effect on acute cocaine-induced hyperlocomotion: all doses tested, i.p., ANOVA effect of treatment
Swiss-Webster mice [2] = assay: Cocaine-conditioned locomotor response, acquisition and expression (Example 2)
Swiss-Webster mice [3] = assay: Nicotine-induced locomotor activity test; assay type: in vivo; settings: 60-90 min; for motor activity, compound alone: no nicotine, vs vehicle
Procedure: Test Compounds. […] Chantix (varencline, 3 mg/kg) was obtained from National Institute on Drug Abuse. All drugs were dissolved in 0.9% saline and pH was maintained at 7.
Testing Procedures. […] In all studies, horizontal activity (interruption of photocell beams) was measured for 120 min within 10-min periods.
Different groups of Swiss-Webster mice were pretreated via injection (IP) with either DMTU (5 or 10 mg/kg), or Chantix (varenicline, 3 mg/kg) or vehicle (0.9% saline) for 30 minutes (FIG. 10). Following pretreatment all groups were mice were injected via the subcutaneous (sc) route with either 0.9% saline or r nicotine (1.6 mg/kg) just prior to placement in the activity chamber. The activity of all mice were recorded for a period of 2-h (FIG. 10).

Swiss-Webster mice [4] = assay: Cocaine-conditioned locomotor activity, expression test (Example 1); settings: last 15 minutes, vs Paired-vehicle, cocaine 40 mg/kg
mice = assay: Cocaine-conditioned place preference; assay type: in vivo
Procedure: All mice underwent standard place conditioning. As depicted in FIG. 3, the procedures of the first four days were identical to those described previously (Shetty et al., 2017). A preference score was calculated for each individual mouse using the following equation: Time spent on S+ (at test)−Time spent on S+ (at pretest). The preference score assesses the nature and magnitude of drug conditioning to the S+ floor, with positive numbers reflecting an increase in preference for S+ following the experience with cocaine and negative numbers indicating a decrease in preference following experience with cocaine. A second test session was conducted 24 hours later (on day 5). This test was identical to the test session on day 4 except that 30 minutes prior to testing, mice were pretreated with either 5 or 10 mg/kg DMTU (i.p.). A preference score was calculated after the second test in a similar fashion as described for the first preference test.
Data Analysis. […] The existence of subgroups was determined through application of K-means clustering analysis (SYSTAT v. 13.1). In this fashion, Test 1 data was partitioned into 3 subgroups: mice with high positive preference scores (labeled as High Seeker group), mice with low positive preference scores (labeled as Low Seeker group), and mice with negative preference scores (labeled as Avoider group).
Data from the mice treated with 5 mg/kg DMTU during Test 2 were analyzed separately from data from mice treated with 10 mg/kg DMTU. Separate one-way repeated measures analysis of variance (ANOVA) was conducted, with test (comparison of preference score on test day 1 and day 2) as a within-subject factor.
To assess the ability of DMTU (by either the 5 mg/kg or 10 mg/kg dose) to reduce cocaine-induced preference on different subsets of mice, within-subject planned comparisons of preference scores on test 1 and 2 were performed for each cluster separately (Avoider, Low Seeker, High Seeker). Alpha was set to 0.05.

[5] = all doses tested, i.p., ANOVA effect of treatment, last 15 min

SMILES: COc1cc(C(C)=O)ccc1O [Apocynin, apocynin]
- effect on acute cocaine-induced hyperlocomotion (Swiss-Webster mice [1]): no significant main effect
- expression of the cocaine-conditioned locomotor response (Swiss-Webster mice [2]; 25 mg/kg i.p., initial 15 min of the test, post hoc): facilitated expression of the conditioned response
- acquisition of the cocaine-conditioned locomotor response (Swiss-Webster mice [2]; [5]): no effect on acquisition
- expression of the cocaine-conditioned locomotor response (Swiss-Webster mice [2]; [5]): no effect on expression

SMILES: c1cnc2cc3c(cc2n1)[C@@H]1CNC[C@H]3C1 [Chantix, varenicline]
- motor activity with nicotine (Swiss-Webster mice [3]; 3 mg/kg IP 30 min pretreatment + nicotine 1.6 mg/kg sc): significant reduction
- motor activity, compound alone (Swiss-Webster mice [3]; 3 mg/kg IP alone): significant reduction

SMILES: CNC(=S)NC [DMTU, N,N′-dimethylthiourea]
- expression of cocaine-conditioned locomotor activity (horizontal activity, counts) (Swiss-Webster mice [4]; 5 mg/kg i.p. 30 min before expression test): did not affect activity
- expression of cocaine-conditioned locomotor activity (horizontal activity, counts) (Swiss-Webster mice [4]; 10 mg/kg i.p. 30 min before expression test): significantly inhibited cocaine-conditioned locomotor activity
- nicotine-induced stimulant locomotor activity (horizontal activity, counts) (Swiss-Webster mice [3]; 5 mg/kg IP 30 min pretreatment + nicotine 1.6 mg/kg sc, only 10 mg/kg was significant): modulated nicotine induced stimulant action
- nicotine-induced stimulant locomotor activity (horizontal activity, counts) (Swiss-Webster mice [3]; 10 mg/kg IP 30 min pretreatment + nicotine 1.6 mg/kg sc, vs nicotine alone): significantly reduced the nicotine stimulant activity
- motor activity, compound alone (Swiss-Webster mice [3]; DMTU alone (5 or 10 mg/kg IP)): failed to alter the motor activity
- effect on acute cocaine-induced hyperlocomotion (Swiss-Webster mice [1]): no significant main effect
- cocaine-conditioned place preference score, Test 2 vs Test 1 (mice; 5 mg/kg i.p. 30 min before Test 2, clusters combined, cocaine 15 mg/kg): not significantly altered
- cocaine-conditioned place preference score, Test 2 vs Test 1 (mice; 5 mg/kg i.p., Avoider group): Neither dose of DMTU succeeded in blocking preference scores
- cocaine-conditioned place preference score, Test 2 vs Test 1 (mice; 5 mg/kg i.p., High Seeker subset): significantly reduced preference scores
- cocaine-conditioned place preference score, Test 2 vs Test 1 (mice; 5 mg/kg i.p., Low Seeker group): Neither dose of DMTU succeeded in blocking preference scores
- cocaine-conditioned place preference score, Test 2 vs Test 1 (mice; 10 mg/kg i.p. 30 min before Test 2, clusters combined, cocaine 15 mg/kg): not significantly altered
- cocaine-conditioned place preference score, Test 2 vs Test 1 (mice; 10 mg/kg i.p., Avoider group): Neither dose of DMTU succeeded in blocking preference scores
- cocaine-conditioned place preference score, Test 2 vs Test 1 (mice; 10 mg/kg i.p., High Seeker subset): significantly reduced preference scores
- cocaine-conditioned place preference score, Test 2 vs Test 1 (mice; 10 mg/kg i.p., Low Seeker group): Neither dose of DMTU succeeded in blocking preference scores
- acquisition of the cocaine-conditioned locomotor response (Swiss-Webster mice [2]; 50 mg/kg i.p., post-hoc): significantly attenuated acquisition
- expression of the cocaine-conditioned locomotor response (Swiss-Webster mice [2]; 25-50 mg/kg i.p., post-hoc): significantly attenuating expression
- ED50:AD50 ratio (Swiss-Webster mice [2]): 4.676
- acquisition of the cocaine-conditioned locomotor response (Swiss-Webster mice [2]; [5]): significant main effect
- expression of the cocaine-conditioned locomotor response (Swiss-Webster mice [2]; [5]): significant effect on expression

SMILES: CC(=O)N[C@@H](CS)C(=O)O [NAC, N-acetylcysteine]
- effect on acute cocaine-induced hyperlocomotion (Swiss-Webster mice [1]): no significant main effect
- expression of the cocaine-conditioned locomotor response (Swiss-Webster mice [2]; 100 mg/kg i.p., post-hoc): significant attenuation
- acquisition of the cocaine-conditioned locomotor response (Swiss-Webster mice [2]; 250 mg/kg i.p., post-hoc vs paired control): significantly attenuated acquisition
- ED50:AD50 ratio (Swiss-Webster mice [2]): 1.2731
- acquisition of the cocaine-conditioned locomotor response (Swiss-Webster mice [2]; [5]): no significant main effect
- expression of the cocaine-conditioned locomotor response (Swiss-Webster mice [2]; [5]): main effect

SMILES: O=C1O[C@H]([C@@H](O)CO)C(O)=C1O [Vitamin C, L-ascorbic acid]
- effect on acute hyperkinetic effect of cocaine (Swiss-Webster mice [1]; 100 mg/kg i.p.): facilitated the acute hyperkinetic effect of cocaine
- acquisition of the cocaine-conditioned locomotor response (Swiss-Webster mice [2]; 100 mg/kg i.p., initial 15 min of the test, post-hoc): facilitated acquisition of the conditioned locomotor response
- acquisition of the cocaine-conditioned locomotor response (Swiss-Webster mice [2]; [5]): failed to attenuate acquisition
- expression of the cocaine-conditioned locomotor response (Swiss-Webster mice [2]; [5]): failed to attenuate

SMILES: Cc1c(C)c2c(c(C)c1O)CC[C@@](C)(CCC[C@H](C)CCC[C@H](C)CCCC(C)C)O2 [Vitamin E, (+)-alpha-tocopherol]
- effect on acute cocaine-induced hyperlocomotion (Swiss-Webster mice [1]): had no effect on the acute effect of cocaine
- acquisition of the cocaine-conditioned locomotor response (Swiss-Webster mice [2]; [5]): failed to attenuate acquisition
- expression of the cocaine-conditioned locomotor response (Swiss-Webster mice [2]; [5]): failed to attenuate
